“Also recorded” adds a separate entry of the source. Structures can show the parent of a compound that is named as a salt. Where two headings read alike, the source gives them in different places.
Assays:
[1] = oxidation of dodecyldimethylamine with hydrogen peroxide under transition metal stress conditions in presence of phosphonate or other chelating agent (residual peroxide/amine, amine oxide yield, amine conversion)
Description: The residual amounts of peroxide and amine are the measured amounts in the mixture, the A O yield indicated is the weight percentage of measured amine oxide based on the amount of amine employed, assuming a purity of 97.5% and the amine conversion is based on the weight of the amine material (as 100%) that has been consumed.

[2] = residual nitrosamine content measured by gas chromatography - thermal energy analyzer; conditions: for Residual Nitrosamine: Table 3; for Residual Nitrosamines: Table 2, sum of dimethylnitrosamine and dodecylmethylnitrosamine, mole ratio about 4.3:1
Description: In addition to determining the effect of the phosphonates upon the extent of the reaction, the residual content of nitrosamines was independently measured by gas chromatography - thermal energy analyzer, and Table 2 below gives the sum of the two principal nitrosamines, namely dimethylnitrosamine and dodecylmethylnitrosamine.

[3] = Table 3, chelating agent:metals mole ratio 4.3:1
[4] = chelating agent:metals mole ratio 4.3:1
[5] = Table 1, amine oxide, based on amine employed, assuming purity of 97.5%, stress conditions, mole ratio about 4.3:1
[6] = Table 1, mole ratio ATMP:metals 7.3:1 (C 5)
[7] = Table 1, stress conditions, 2.5 ppm metals, […]
[8] = Table 1, weight of amine consumed, stress conditions, mole ratio about 4.3:1
[9] = Table 1, stress conditions, 2.5 ppm metals, phosphonate:metal mole ratio about 4.3:1
[10] = Table 1, phosphonate pre-mixed with the hydrogen peroxide solution (Ex 3)
[11] = Table 3, lower mole ratio 2.15:1 (Ex 10)

SMILES	A O yield [1, 3] [wt %]	Amine Conversion [1, 3] [wt %]	Peroxide Consumed [1, 3] [wt %]	Residual Nitrosamine [2, 4] [ppb]	A O yield [1, 5] [wt %]	Amine Conversion [1, 8] [wt %]	Residual Nitrosamines [2] [ppb]	Residual Amine [1, 9] [wt %]	Residual Peroxide [1, 9] [wt %]	other results
CC(O)(P(=O)(O)O)P(=O)(O)O [HEDP, hydroxyethylidene-1,1-diphosphonic acid]	32.1	48.2	99.6	10024						effectiveness in the amine oxidation process (in words) ([1]; stress conditions, listed as (hydroxyethylidene)diphosphonic acid): significantly inferior; effectiveness in the amine oxidation process (in words) ([1]; stress conditions, listed as C12): ineffective
O=P(O)(O)CN(CP(=O)(O)O)CP(=O)(O)O [ATMP, aminotris(methylenephosphonic acid) sodium salt]					38.3	40.5	11036			A O yield [1, 6]: 63.1 wt %; Amine Conversion [1, 6]: 65.7 wt %; Residual Amine [1, 6]: 9.9 wt %; Residual Peroxide [1, 6]: 0.02 wt %; Residual Amine [1, 7]: 17.3 wt %; Residual Peroxide [1, 7]: 0.02 wt %; effectiveness in the amine oxidation process (in words) ([1]; stress conditions, listed as C4, sodium salt): less amine conversion and a lower yield of amine oxide than the corresponding reaction to which no phosphonates had been introduced; effectiveness in the amine oxidation process (in words) ([1]; stress conditions, listed as C5, sodium salt): rather better than C4, but still very markedly worse than the results for Ex2/3, Ex6 or Ex7; effectiveness in the amine oxidation process (in words) ([1]; stress conditions, sodium salt): did not perform with similar effectiveness; effect on residual nitrosamine content (in words) ([2]; text conclusion from Table 2): significantly worse
O=P(O)(O)CN1CCN(CP(=O)(O)O)CCN(CP(=O)(O)O)CCN(CP(=O)(O)O)CCN(CP(=O)(O)O)CCN(CP(=O)(O)O)CC1 [HCMP, hexacyclenehexa(methylenephosphonic acid)]					97.1	96.8	1056	0.9	0.76	effectiveness in the amine oxidation process (in words) ([1]; stress conditions): very great amelioration of the problem
O=P(O)(O)CN(CCN(CP(=O)(O)O)CP(=O)(O)O)CCN(CP(=O)(O)O)CP(=O)(O)O [DTPMPA]	96.5	96.1	86.4	1591						
O=C(O)CN(CC(=O)O)C1CCCCC1N(CC(=O)O)CC(=O)O (stereo not shown) [CDTA, cyclohexane-1,2-diaminotetra(acetic acid), sodium salt]	34.4	68.1	99.9	3279						
O=P(O)(O)CN(CP(=O)(O)O)C1CCCCC1N(CP(=O)(O)O)CP(=O)(O)O (stereo not shown) [CDTMP, cyclohexanediaminotetra(methylenephosphonic acid), sodium salt]					97.7	97.3	1950	0.8	0.67	effectiveness in the amine oxidation process (in words) ([1]; stress conditions): very great amelioration of the problem
O=P(O)(O)CN(CCN(CP(=O)(O)O)CP(=O)(O)O)CCN(CP(=O)(O)O)CP(=O)(O)O [DTPMP, diethylenetriaminepenta(methylenephosphonic acid), sodium salt]					96.2	94.4	251	1.6	0.72	A O yield [1, 10]: 97.2 wt %; Amine Conversion [1, 10]: 96.7 wt %; Residual Amine [1, 10]: 0.9 wt %; Residual Peroxide [1, 10]: 0.66 wt %; A O yield [1, 11]: 98.8 wt %; Amine Conversion [1, 11]: 98.3 wt %; Peroxide Consumed [1, 11]: 83.1 wt %; effectiveness in the amine oxidation process (in words) ([1]; stress conditions, sodium salt): very great amelioration of the problem; also recorded: equally as good, or possibly even slightly better when introduced via the hydrogen peroxide solution; Residual Nitrosamine ([2]; lower mole ratio 2.15:1 (Ex 10)): 1031 ppb
O=P(O)(O)CN(CCCCCCN(CP(=O)(O)O)CP(=O)(O)O)CP(=O)(O)O [HDTMP, hexamethylenediaminetetra(methylene phosphonic acid)]	37.0	58.7	99.6	3834						effectiveness in the amine oxidation process (in words) ([1]; stress conditions, listed as C11): singularly ineffective; effectiveness in the amine oxidation process (in words) ([1]; stress conditions, listed as hexamethylenediaminotetra(methylenephosphonic acid)): significantly inferior
O=C(O)CN(CCN(CC(=O)O)CC(=O)O)CCN(CC(=O)O)CC(=O)O [DTPA, diethylenetriaminepenta(acetic acid), sodium salt]	83.9	83.2	99.6	7017						
O=C([O-])CN(CCN(CC(=O)[O-])CC(=O)[O-])CC(=O)[O-].[Na+].[Na+].[Na+].[Na+] [EDTA, ethylenediaminetetra(acetic acid), sodium salt]				3421						A O yield [1]: 35.3 wt %; Amine Conversion [1]: 54.8 wt %; Peroxide Consumed [1]: 99.9 wt %
